From patent EP0973746B1, “SUBSTITUTED 3-CYANO QUINOLINES” (Wyeth Holdings Corporation, priority 1997, dated 1998)
Converted amounts (≈) assume the structure as drawn.

Experiments:
[1] = tested on: A2780DDP; test: Inhibition of cancer cell growth as measured by cell number, A2780DDP; format: cell-based; conditions: Homo sapiens, 48 h, read-out: IC50 A2780DDP
[2] = tested on: B7474; test: Inhibition of cancer cell growth as measured by cell number, B7474; format: cell-based; conditions: Homo sapiens, 48 h, read-out: IC50 B7474
[3] = tested on: MIP; test: Inhibition of cancer cell growth as measured by cell number, MIP; format: cell-based; conditions: Homo sapiens; cell number, Sulforhodamine B, 48 hours exposure; Table 4; read-out: IC50 MIP
[4] = target: recombinant human MEK 1 (MAPKK) and recombinant human ERK2 (MAPK); test: Mitogen Activated Protein Kinase (MAPK) assay, two component coupled MEK 1 / ERK2; format: biochemical; conditions: separate entries for the same compound = evaluated more than one time;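 note: MEK 1-activated ERK2 phosphorylates MBP or Myc peptide with 33P-ATP, filter capture and scintillation counting, inhibitor preincubated with ERK2 30 min at 0 °C, inhibition relative to uninhibited control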
[5] = tested on: HL60; test: Inhibition of cancer cell growth as measured by cell number, HL60; format: cell-based; conditions: Homo sapiens, HL-60, 48 h, read-out: IC50 HL60
[6] = tested on: A431; test: Inhibition of cell growth by incorporation of [3H]-thymidine, A431; format: cell-based, human; conditions: Homo sapiens, A-431, read-out: IC50 A431
Protocol: Representative compounds of this invention were evaluated for their ability to inhibit the growth of the cell lines described below in vitro. The inhibition is quantitated by measuring the decrease in the incorporation of radio-labeled thymidine when the cells are grown in the presence of the inhibitor. […] Cells were routinely grown in a humidified incubator in 5% CO2 in air.
Cells were seeded at 10,000 cells/well in 96 well plates in complete media and allowed to grow to log phase. At this stage the complete media was replaced with media containing 0.5% FBS (for cells growing in 10% FBS) or media lacking epidermal growth factor (EGF) (for cells growing in serum free media). […] Media with test compound was then removed and complete media was added back. The cells were allowed to grow for 18 hours. This is followed by incubation in [^3H]thymidine (1mCi/ml in serum/EGF media) for 4 hours. Cells were lysed in 0.5 M NaOH for at least 30 min at 37°C and radioactivity analyzed.
The % inhibition of the compound evaluated was determined for at least three different concentrations and the IC50 value evaluated from the dose response curve. […] CPM(control) is in units of counts per minute and is a number expressing the amount of [^3H]thymidine incorporated onto the DNA when cells are grown in the absence of test compound as measured by liquid scintillation counting.

[7] = tested on: LOX; test: Inhibition of cancer cell growth as measured by cell number, LOX; format: cell-based, human; conditions: Homo sapiens, LOX, 48 h, read-out: IC50 LOX, cell number, Sulforhodamine B, 48 hours exposure; Table 6;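 note: LOX cells served as a line with low or absent EGFR and HER2/neu expression, in contrast to receptor-overexpressing lines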
Description: (§1) The cell lines were chosen since they overexpressed epidermal growth factor receptor (EGFR) (i.e. A431) or HER2/neu (SKBR3), or had little to no expression of the these receptors (SW620, LOX, MCF7).

[8] = tested on: NHEK; test: Inhibition of cell growth by incorporation of [3H]-thymidine, NHEK; format: cell-based, human; conditions: Homo sapiens, read-out: IC50 NHEK
[9] = tested on: CX1; test: Inhibition of cancer cell growth as measured by cell number, CX1; format: cell-based; conditions: Homo sapiens, CX-1, 48 h, read-out: IC50 CX1
[10] = tested on: DU145; test: Inhibition of cancer cell growth as measured by cell number, DU145; format: cell-based; conditions: Homo sapiens, DU-145, 48 h, read-out: IC50 DU145
[11] = tested on: SW620; test: Inhibition of cancer cell growth as measured by cell number, SW620; format: cell-based, human; conditions: Homo sapiens, SW-620, 48 h, read-out: IC50 SW620, cell number, Sulforhodamine B, 48 hours exposure; Table 4;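 note: SW620 was included as a cell line with little or no EGFR or HER2/neu expression, in contrast to receptor-overexpressing lines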
Description: as §1

[12] = tested on: A431; test: Inhibition of cancer cell growth as measured by cell number, A431; format: cell-based, human; conditions: Homo sapiens, A-431, 48 h, read-out: IC50 A431, cell number, Sulforhodamine B, 48 hours exposure; Table 6;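 note: human A431 line, picked because it overexpresses epidermal growth factor receptor (EGFR)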
Description: as §1

[13] = tested on: LX1; test: Inhibition of cancer cell growth as measured by cell number, LX1; format: cell-based; conditions: Homo sapiens, LX-1, 48 h, read-out: IC50 LX1
[14] = tested on: COLO205; test: Inhibition of cancer cell growth as measured by cell number, COLO205; format: cell-based; conditions: Homo sapiens, COLO 205, 48 h, read-out: IC50 COLO205
[15] = tested on: CACO2; test: Inhibition of cancer cell growth as measured by cell number, CACO2; format: cell-based; conditions: Homo sapiens, Caco-2, 48 h, read-out: IC50 CACO2
[16] = tested on: LNCAP; test: Inhibition of cancer cell growth as measured by cell number, LNCAP; format: cell-based; conditions: Homo sapiens, 48 h, read-out: IC50 LNCAP
[17] = tested on: SW948; test: Inhibition of cancer cell growth as measured by cell number, SW948; format: cell-based; conditions: Homo sapiens, SW948, 48 h, read-out: IC50 SW948
[18] = tested on: HCT15; test: Inhibition of cancer cell growth as measured by cell number, HCT15; format: cell-based; conditions: Homo sapiens, HCT-15, 48 h, read-out: IC50 HCT15
[19] = tested on: HTB161; test: Inhibition of cancer cell growth as measured by cell number, HTB161; format: cell-based; conditions: Homo sapiens, 48 h, read-out: IC50 HTB161
[20] = tested on: A549; test: Inhibition of cancer cell growth as measured by cell number, A549; format: cell-based; conditions: Homo sapiens, A549, 48 h, read-out: IC50 A549
[21] = tested on: A27805; test: Inhibition of cancer cell growth as measured by cell number, A27805; format: cell-based; conditions: Homo sapiens, 48 h, read-out: IC50 A27805
[22] = tested on: T47D; test: Inhibition of cancer cell growth as measured by cell number, T47D; format: cell-based; conditions: Homo sapiens, 48 h, read-out: IC50 T47D
[23] = tested on: CCRF-CFM; test: Inhibition of cancer cell growth as measured by cell number, CCRF-CFM; format: cell-based; conditions: Homo sapiens, 48 h, read-out: IC50 CCRF-CFM
[24] = tested on: LS174T; test: Inhibition of cancer cell growth as measured by cell number, LS174T; format: cell-based; conditions: Homo sapiens, 48 h, read-out: IC50 LS174T
[25] = tested on: PC3; test: Inhibition of cancer cell growth as measured by cell number, PC3; format: cell-based; conditions: Homo sapiens, PC-3, 48 h, read-out: IC50 PC3
[26] = tested on: MCF7; test: Inhibition of cancer cell growth as measured by cell number, MCF7; format: cell-based, human; conditions: Homo sapiens, MCF7, 48 h, read-out: IC50 MCF7, cell number, Sulforhodamine B, 48 hours exposure; Table 5;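 note: MCF7 was included as a line with little or no EGFR or HER2/neu expression, in contrast to the receptor-overexpressing lines of the panel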
Description: as §1

[27] = tested on: CCL228; test: Inhibition of cancer cell growth as measured by cell number, CCL228; format: cell-based; conditions: Homo sapiens, 48 h, read-out: IC50 CCL228
[28] = tested on: SKBR3; test: Inhibition of cancer cell growth as measured by cell number, SKBR3; format: cell-based, human; conditions: Homo sapiens, SK-BR-3, 48 h, read-out: IC50 SKBR3, cell number, Sulforhodamine B, 48 hours exposure; Table 7;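 note: SK-BR-3 cells were selected as a line overexpressing HER2/neu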
Description: as §1

[29] = tested on: NEC; test: Inhibition of cancer cell growth as measured by cell number, NEC; format: cell-based; conditions: Homo sapiens, 48 h, read-out: IC50 NEC
[30] = target: epidermal growth factor receptor kinase (Homo sapiens, UniProt P00533); test: biochemical
Sequence of epidermal growth factor receptor kinase (P00533 25-1210): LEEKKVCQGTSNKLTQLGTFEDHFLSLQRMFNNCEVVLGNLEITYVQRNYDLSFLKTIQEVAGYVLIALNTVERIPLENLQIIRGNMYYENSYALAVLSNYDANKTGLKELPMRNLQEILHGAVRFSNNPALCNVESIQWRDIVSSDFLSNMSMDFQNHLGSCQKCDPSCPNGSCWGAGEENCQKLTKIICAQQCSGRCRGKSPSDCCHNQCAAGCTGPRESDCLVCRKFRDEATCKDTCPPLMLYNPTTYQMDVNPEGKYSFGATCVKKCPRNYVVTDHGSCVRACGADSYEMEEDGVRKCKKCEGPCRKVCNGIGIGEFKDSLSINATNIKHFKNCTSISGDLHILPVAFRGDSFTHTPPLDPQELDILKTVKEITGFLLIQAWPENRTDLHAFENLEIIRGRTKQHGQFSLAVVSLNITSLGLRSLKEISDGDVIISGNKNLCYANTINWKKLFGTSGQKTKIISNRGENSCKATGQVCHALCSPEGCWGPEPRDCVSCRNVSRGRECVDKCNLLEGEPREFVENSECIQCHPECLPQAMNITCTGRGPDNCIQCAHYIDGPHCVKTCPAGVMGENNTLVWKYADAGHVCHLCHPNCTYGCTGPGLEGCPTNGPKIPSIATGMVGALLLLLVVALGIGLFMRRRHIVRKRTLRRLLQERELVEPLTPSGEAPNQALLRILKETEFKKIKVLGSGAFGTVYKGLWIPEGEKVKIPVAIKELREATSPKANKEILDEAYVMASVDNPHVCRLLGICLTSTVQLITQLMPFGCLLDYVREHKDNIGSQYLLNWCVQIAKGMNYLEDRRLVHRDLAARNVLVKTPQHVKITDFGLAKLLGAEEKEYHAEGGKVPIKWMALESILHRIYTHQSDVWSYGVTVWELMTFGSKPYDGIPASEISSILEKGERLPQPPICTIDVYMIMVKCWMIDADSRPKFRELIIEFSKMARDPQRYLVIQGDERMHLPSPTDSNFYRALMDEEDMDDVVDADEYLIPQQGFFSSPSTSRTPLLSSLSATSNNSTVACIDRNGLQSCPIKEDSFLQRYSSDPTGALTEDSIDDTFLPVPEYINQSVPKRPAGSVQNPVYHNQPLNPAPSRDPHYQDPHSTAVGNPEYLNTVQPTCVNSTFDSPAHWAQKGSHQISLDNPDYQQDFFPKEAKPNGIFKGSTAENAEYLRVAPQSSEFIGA

| Compound | IC50 [1] | IC50 [2] | IC50 [3] | IC50 [4] | IC50 [5] | IC50 [6] | IC50 [7] | IC50 [8] | IC50 [9] | IC50 [10] | IC50 [11] | IC50 [12] | IC50 [13] | IC50 [14] | IC50 [15] | IC50 [16] | IC50 [17] | IC50 [18] | IC50 [19] | IC50 [20] | also measured |
| --- | --- | --- | --- | --- | --- | --- | --- | --- | --- | --- | --- | --- | --- | --- | --- | --- | --- | --- | --- | --- | --- |
| COc1cc2ncc(C#N)c(Nc3cccc(Br)c3)c2cc1N [Example 7, 6-Amino-4-[(3-bromophenyl)amino] -7-methoxy-3-quinolinecarbonitrile] | 4.91 µg/mL (≈ 13.3 µM) | 3.88 µg/mL (≈ 10.5 µM) | 2.39 µg/mL (≈ 6.48 µM) | 25 µM | 2.63 µg/mL (≈ 7.13 µM) | > 50 µM | 1.45 µg/mL (≈ 3.92 µM) | 4.5 µM | 4.88 µg/mL (≈ 13.2 µM) | 1.09 µg/mL (≈ 2.95 µM) | 5.84 µg/mL (≈ 15.8 µM) | 1.06 µg/mL (≈ 2.86 µM) | 6.3 µg/mL (≈ 17.1 µM) | 4.83 µg/mL (≈ 13.1 µM) | 2.3 µg/mL (≈ 6.22 µM) | 2.19 µg/mL (≈ 5.92 µM) | 5.85 µg/mL (≈ 15.9 µM) | 3.98 µg/mL (≈ 10.8 µM) | 2.12 µg/mL (≈ 5.75 µM) | 5.93 µg/mL (≈ 16.1 µM) | IC50 [21]: 4.66 µg/mL (≈ 12.6 µM); IC50 [22]: 5.17 µg/mL (≈ 14 µM); IC50 [23]: 3.44 µg/mL (≈ 9.3 µM); IC50 [24]: 3.23 µg/mL (≈ 8.75 µM); IC50 [25]: 7.22 µg/mL (≈ 19.6 µM); IC50 [26]: 5.67 µg/mL (≈ 15.4 µM); IC50 [27]: 6.25 µg/mL (≈ 16.9 µM); IC50 [28]: 5.6 µg/mL (≈ 15.2 µM); IC50 [29]: 5.18 µg/mL (≈ 14 µM) |
| CC#CC(=O)Nc1cc2c(Nc3cccc(Br)c3)c(C#N)cnc2cc1OC [Example 8, N-[4-[(3-Bromophenyl)amino]-3-cyano-7-methoxy-6-guinolinyl]-2-butynamide] | 6.79 µg/mL (≈ 15.6 µM) | 55.5 µg/mL (≈ 127 µM) | 0.354 µg/mL (≈ 0.813 µM) | > 100 µM | 18.9 µg/mL (≈ 43.5 µM) | 40 µM | 0.647 µg/mL (≈ 1.49 µM) | 0.2 µM | 7.55 µg/mL (≈ 17.3 µM) | 6.47 µg/mL (≈ 14.9 µM) | 2.5 µg/mL (≈ 5.75 µM) | 9.59 µg/mL (≈ 22 µM) | 0.932 µg/mL (≈ 2.14 µM) | 2.49 µg/mL (≈ 5.72 µM) | 2.33 µg/mL (≈ 5.35 µM) | 59.4 µg/mL (≈ 137 µM) | 86.9 µg/mL (≈ 200 µM) | 10.9 µg/mL (≈ 25.1 µM) | 98.8 µg/mL (≈ 227 µM) | 7.28 µg/mL (≈ 16.7 µM) | IC50 [30]: 0.15 µM; IC50 [21]: 0.912 µg/mL (≈ 2.09 µM); IC50 [22]: 39.5 µg/mL (≈ 90.7 µM); IC50 [23]: 0.823 µg/mL (≈ 1.89 µM); IC50 [24]: 2.03 µg/mL (≈ 4.66 µM); IC50 [25]: 53.4 µg/mL (≈ 123 µM); IC50 [26]: 53.2 µg/mL (≈ 122 µM); IC50 [27]: 8.67 µg/mL (≈ 19.9 µM); IC50 [28]: 38.3 µg/mL (≈ 87.9 µM); IC50 [29]: 9.3 µg/mL (≈ 21.4 µM) |
